What all share (assay type): cell-based
The test system of assay [1] is Staphylococcus aureus NCTC 10442. Briefly: Blocking experiments with Nα,Nε-diacetyl-Lys-D-Ala-D-Ala in microdilution. The following applies: at least 100-fold excess of Nα,Nε-Diacetyl-Lys-D-Ala-D-Ala, pre-incubation minimum 1 hour at room temperature. The protocol: (§1) Antimicrobial testing – Microdilution
(§2) Antimicrobial testing was performed according to CLSI and EUCAST guidelines in microdilution.8-10 Therefore, all tested substances as well as controls were dissolved in water in different concentrations and serially diluted in MHB II (cation adjusted) on the 96-well plate. A logarithmic growing, overnight culture of the respective bacterial strain was used and adjusted to a McFarland corresponding to 1 × 10^8 cfu/ml. Afterwards the bacterial suspension was diluted to 1 ×10^6 cfu/ml and loaded on the 96-well polypropylene plates, resulting in a final bacterial concentration of 5 × 10^5 cfu/ml. After an incubation at 35 ± 1 °C for 18-20 hours (re-controlled after 24 hours) the MIC was determined as the lowest concentration without visible growth as described previously.11 For direct comparison of the tested substances, all results were calculated in mg/ml and mol/ml afterwards.
For blocking experiments with NΑ,NΕ-DIACETYL-LYS-D-ALA-D-ALA the tested substances were incubated directly on the dilution plate with at least 100-fold excess of Nα,Nε-Diacetyl-Lys-D-Ala-D-Ala for a minimum of 1 hour at room temperature. Afterwards, the procedure was performed as described above. As further control substance, the glycopeptide antibiotic teicoplanin was evaluated. […] Resistance development in S. aureus was determined by passaging bacteria in increasing amounts of vancomycin, FU002 or, as control, fusidic acid. In principle, tubes with twofold dilutions of the compounds in 1 ml Muller Hinton broth were inoculated 1:100 with bacterial suspension. The tubes were then incubated for 24 h at 37 °C under shaking. After each passage, the tube with the highest compound concentration showing bacterial growth was used to inoculate the tubes of the next passage (1:100). The tube with the lowest compound concentration showing no growth was defined as the passage MIC. […]
(§3) For the validation of possible side effects provoked by the conjugates, the cytotoxic effect of the lead candidate FU002 on human cells was assessed in a colorimetric viability assay. […]
In general terms: Broth dilution looks for growth in wells or tubes with falling amounts of substance.

In assay [2] the test system is Staphylococcus aureus USA300 LAC. Briefly: microbe, parasite or virus in culture. Conditions: for MIC: Staphylococcus aureus, MRSA / USA300, 24 h. The protocol: as §1
as §2, with “afterwards. […]” for “afterwards.”
Resistance development study
Resistance development in S. aureus was determined by passaging bacteria in increasing amounts of vancomycin, FU002 or, as control, fusidic acid. In principle, tubes with twofold dilutions of the compounds in 1 ml Muller Hinton broth were inoculated 1:100 with bacterial suspension. The tubes were then incubated for 24 h at 37 °C under shaking. After each passage, the tube with the highest compound concentration showing bacterial growth was used to inoculate the tubes of the next passage (1:100). The tube with the lowest compound concentration showing no growth was defined as the passage MIC. Passaging was stopped after 8 passages.
For the validation of possible side effects provoked by the conjugates, the cytotoxic effect of the lead candidate FU002 on human cells was assessed in a colorimetric viability assay. Different human cell types were used including kidney and liver cell lines as well as freshly isolated peripheral blood cells. Cells were seeded into 96-well microtiter plates at 2 x 10^4 cells/well and cultured overnight (18-24 h) in a […]

A further assay concerns E. faecium UL602570*. Briefly: microbe, parasite or virus in culture. The protocol: as §1
as §2, with “afterwards. […]” for “afterwards.”
Resistance development in S. aureus was determined by passaging bacteria in increasing amounts of vancomycin, FU002 or, as control, fusidic acid. In principle, tubes with twofold dilutions of the compounds in 1 ml Muller Hinton broth were inoculated 1:100 with bacterial suspension. […]
as §3

In brackets after ≈: the same amount, converted by molar mass. Like-named read-outs stand apart in the source and are kept apart here.

From article PMC7323874, “Vancomycin Resistance Is Overcome by Conjugation of Polycationic Peptides” (Angewandte Chemie (International Ed. in English), 2020) come the findings set out here.

On to `CN[C@H](CC(C)C)C(=O)N[C@H]1C(=O)N[C@@H](CC(N)=O)C(=O)N[C@H]2C(=O)N[C@H]3C(=O)N[C@H](C(=O)N[C@H](C(=O)O)c4cc(O)cc(O)c4-c4cc3ccc4O)[C@H](O)c3ccc(c(Cl)c3)Oc3cc2cc(c3O[C@@H]2O[C@H](CO)[C@@H](O)[C@H](O)[C@H]2O[C@H]2C[C@](C)(N)[C@H](O)[C@H](C)O2)Oc2ccc(cc2Cl)[C@H]1O` [vancomycin], for which the “effect of D-Ala-D-Ala binding motif on antibiotic activity” value in assay [1] is listed as “suppresses the antibiotic activity”. Moreover, the MIC in assay [2] (read-out: MIC after 8 passages) was 4 µg/mL (≈ 2.76 µM); in assay [2] (read-out: initial MIC), 0.5 µg/mL (≈ 0.345 µM); with E. faecium UL602570* (Enterococcus faecium, read-out: MIC of E. faecium UL602570*), more than 64 µg/mL.

For the compound `CC(C)C[C@H](C(=O)N[C@H]1C(=O)N[C@@H](CC(N)=O)C(=O)N[C@H]2C(=O)N[C@H]3C(=O)N[C@H](C(=O)N[C@H](C(=O)O)c4cc(O)cc(O)c4-c4cc3ccc4O)[C@H](O)c3ccc(c(Cl)c3)Oc3cc2cc(c3O[C@@H]2O[C@H](CO)[C@@H](O)[C@H](O)[C@H]2O[C@H]2C[C@](C)(N)[C@H](O)[C@H](C)O2)Oc2ccc(cc2Cl)[C@H]1O)N(C)C(=O)C1CCC(CN2C(=O)CC(SC[C@H](NC(=O)[C@H](CCCNC(=N)N)NC(=O)[C@H](CCCNC(=N)N)NC(=O)[C@H](CCCNC(=N)N)NC(=O)[C@H](CCCNC(=N)N)NC(=O)[C@H](CCCNC(=N)N)NC(=O)[C@@H](N)CCCNC(=N)N)C(N)=O)C2=O)CC1` (stereo partly drawn) [FU002], the “effect of D-Ala-D-Ala binding motif on antibiotic activity” value in assay [1] is on record as “preserves its activity”. The “MIC after 8 passages” value in assay [2] (MRSA USA300 LAC, 8 passages in increasing compound concentrations, 24 h at 37 °C each) was 4 µg/mL (≈ 1.47 µM). Moreover, in assay [2] (MRSA USA300 LAC, before passaging, Muller Hinton broth, 24 h, 37 °C), the “initial MIC” value stood at 1 µg/mL. Further, the resistance development result in assay [2] (after eight passages in increasing concentrations) is on record as “no resistance development was observed”. In addition, the “MIC of E. faecium UL602570*” value with E. faecium UL602570* (comparison of conjugate, equimolar non-covalent mixture and vancomycin) is 1 µg/mL.
